Reference: patent US20200290950A1, “ALKAMIDE COMPOUNDS AND USES THEREOF” (NORTH CAROLINA STATE UNIVERSITY, priority 2017, published 2020)

Assays:
[1] = tested on: RAW 264.7 macrophage-like cells; experiment: Fluo-4 calcium assay, RAW 264.7 cells; format: cell-based, mouse; conditions: 1 μM A23187, 100 μM A15, at 1 min
Method: FIGS. 4A-4D. A15 inhibits A23187-stimulated calcium influx in RAW 264.7 and Jurkat cells. RAW 264.7 (FIG. 4A-4B) or Jurkat cells (FIG. 4C-4D) were loaded with fluo-4 AM using the Fluo-4 AM Direct™ Calcium Assay Kit and fluorescence was measured on a microplate reader. Cells were stimulated with 1 μM A23187 in combination with vehicle only or 100 μM A15. Bar graphs represent the means±SEM of the Δ in RFU's at 1 min post-A23187 stimulation from 3 independent experiments. Statistical analysis was performed using an unpaired Student's t-test, *p<0.05.
RBL-2H3, BMMC, RAW 264.7, or Jurkat cells were plated in clear-bottom, black, 96-well plates (BioExpress, Kaysville, Utah) and incubated overnight with media only or media containing IgE anti-DNP. […] Prior to stimulation, baseline fluorescent readings were measured from triplicate wells in 5 s intervals for 1 min using a Synergy HT microplate reader with 485/20 nm excitation and 528/20 nm emission filters. Cells were then treated with either 1 μM A23187 or 50 ng/mL DNP-BSA prepared in calcium- and magnesium-containing or calcium- and magnesium-free HBSS with 20 mM HEPES, and fluorescence was measured in 10 s intervals for 2 min. […] The average baseline fluorescence of each well was subtracted from the stimulated fluorescent values to calculate the change (Δ) in RFU's and graphed as shown.

[2] = Paw withdrawal latency to heat, cold and touch after topical administration; format: in vivo; conditions: topical in mineral oil on mouse paws
Method: FIG. 12. Antinociceptive effect of topical administration of alkamide A15. Measured paw withdrawal latency to Hargreave's (A) cold assay using dry ice (B) and touch using von-Frey (C). Data were analyzed using parametric evaluation (AUC).
(§1) Several different model systems were utilized for these experiments. In one model, dorsal root ganglia were obtained from mice and the neurons cultured in vitro. The neurons were then stimulated in the presence/absence of A15 and YM8-85 and the calcium responses monitored by fluorescence microscopy. In the second model, the alkamides were applied to mouse skin in mineral oil. The reactions of these mice to heat, cold, and tactile stimulation was then compared with mice that had not received treatment with A15. In a third model, mice were sensitized to the chemical compound toluene-2,4-diisocyanate (TDI). TDI is an industrial chemical which causes hypersensitive skin lesions and itching in exposed humans and animals. The physiological response to TDI is complex involving type 2 T lymphocytes, cytokines, mast cells, and neurons. Alkamides were applied to sensitized animals and then ear swelling and bouts of scratching were monitored.
In vivo responses to painful stimuli. A15 was tested with mice to determine whether the in vitro inhibitory responses noted in FIG. 11 are also seen in vivo. A15 was mixed in mineral oil and added to mouse paws prior to stimulation with heat, cold, or touch. […] Sensations of touch are mediated by distinct families of mechanoreceptors which are apparently unaffected by A15.

TDI-induced ear swelling = format: in vivo, mouse
Text: as §1
A15 and TDI induced hypersensitivity. Mice were sensitized to toluene-2,4-diisocyanate (TDI) via abdominal application. Subsequently, a hypersensitive response was induced in the ear by direct application of TDI and ear thickness measured as a sign of inflammation.

CCCCCCC/C=C/C=C/C(=O)NCC(C)C [A15, (2E,4E)-N-Isobutyldodeca-2,4-dienamide]
suppression of calcium influx [1]: 60.2% | paw withdrawal latency to cold (dry ice) [2]: increased withdrawal latency | paw withdrawal latency to heat (Hargreave's) [2]: increased withdrawal latency | touch latency (von-Frey) [2]: did not affect touch latency | TDI ear swelling (ear thickness) (TDI-induced ear swelling; 0.1%, first experiment (FIG. 13A)): significant inhibitory effect | TDI ear swelling (ear thickness) (TDI-induced ear swelling; 0.1%, repeated experiment (FIG. 13B)): neither A15 nor YM8-85 at 0.1% produced significant inhibition | TDI ear swelling (ear thickness) (TDI-induced ear swelling; 1%, first experiment (FIG. 13A)): significant responses were not seen
